# Reference: US20230346948A1, “Lipid conjugated peptide inhibitors of PICK1” (University of Copenhagen, priority 2020, published 2023)
# Entries after “also recorded” stand apart in the source; their conditions may differ. Like-named read-outs stand apart in the source and are kept apart here.
# Columns and labels:
# [1] = test system: inflammatory pain (CFA model); experiment: Complete Freund's Adjuvant (CFA) model of inflammatory pain, von Frey; assay type: in vivo, mice; settings: for relief of evoked pain (paw withdrawal threshold): day 2 after CFA
# Procedure: Inflammatory pain: Animals were habituated to the experimental room for a minimum of 60 min before initiation of the experiment. Mechanical pain threshold was determined by von Frey measurements of both hind paws. Injury was induced on the right hind paw, whereas the contralateral left hind paw was used as internal control of the animal. Von Frey filaments ranging from 0.04 to 2 g (g=gram-forces) (0.04, 0.07, 0.16, 0.4, 0.6, 1.0, 1.4, 2.0) were used for determination of mechanical pain threshold. In the current experiment filaments in ascending order were applied to the frontocentral plantar surface of the hind paws. Mice were placed in PVC plastic boxes (11.5 cm×14 cm) on a wire mesh, and allowed 30 min habituation prior of […]. Each von Frey hair was applied five times with adequate resting periods between each application and number of withdrawals recorded. The withdrawal threshold was determined as the von Frey filament eliciting at least 3 positive trials out of the 5 applications in two consecutive filaments. A positive trial was defined as sudden paw withdrawal, flinching and/or paw licking induced by the filament. The inflammatory pain was induced by injection of 50 μL undiluted Complete Freund's Adjuvant (CFA) (F5881, Sigma) unilaterally into the intraplantar surface of the right hind paw, whereas control mice were injected with the same amount of 0.9% saline (B. Braun, Germany). All intraplantar injections were performed with and insulin needle (0.3 mL BD Micro-Fine) while the animal was under isoflurane anesthesia (2%) for maximum 60 seconds. Von Frey was applied up to 11 days after unilateral CFA injection depending on the experiment. […] Statistical analysis was performed using GraphPad Prism 6.0. Two-way RM ANOVA followed by Bonferroni's post-hoc test. Significance level set to p<0.05.
# Inflammatory pain (CFA model): Animals were habituated to the experimental room for a minimum of 60 min before initiation of the experiment. Mechanical pain threshold was determined by von Frey measurements of both hind paws. Injury was induced on the right hind paw, whereas the contralateral left hind paw was used as internal control of the animal.
# Von Frey filaments ranging from 0.04 to 2 g (g=gram-forces) (0.04, 0.07, 0.16, 0.4, 0.6, 1.0, 1.4, 2.0) were used for determination of mechanical pain threshold. In the current experiment filaments in ascending order were applied to the frontocentral plantar surface of the hind paws. Mice were placed in PVC plastic boxes (11.5 cm×14 cm) on a wire mesh, and allowed 30 min habituation prior of testing. Each von Frey hair was applied five times with adequate resting periods between each application and number of withdrawals recorded. The withdrawal threshold was determined as the von Frey filament eliciting at least 3 positive trials out of the 5 applications in two consecutive filaments. A positive trial was defined as sudden paw withdrawal, flinching and/or paw licking induced by the filament.
# The inflammatory pain was induced by injection of 50 μL undiluted Complete Freund's Adjuvant (CFA) (F5881, Sigma) unilaterally into the intraplantar surface of the right hind paw, whereas control mice were injected with the same amount of 0.9% saline (B. Braun, Germany). All intraplantar injections were performed with an insulin needle (0.3 mL BD Micro-Fine) while the animal was under isoflurane anesthesia (2%) for maximum 60 seconds. Von Frey was applied up to 6 days after unilateral CFA injection depending on the experiment. The peptides were administered s.c. (10 μL/g)), and at different concentrations (0.4 and 2 μmol/kg). Statistical analysis was performed using GraphPad Prism 6.0. Two-way RM ANOVA followed by Dunnett's post-hoc test. Significance level set to p<0.05.
# [2] = Plasma exposure after s.c. injection, LC-MS; assay type: in vivo; settings: male, C57BL/6N, mouse, sc; for Cmax: at 1 h, read-out: maximal plasma concentration
# Procedure: Three point on the down-slope was determined from 3 points on the elimination phase.
# PICK1 = target: T1, PICK1 (Rattus norvegicus, UniProt Q9EP80); experiment: Size exclusion chromatography of PICK1 in complex with inhibitor; settings: 40 μM PICK1 with 10 μM inhibitor (4:1)
# T1 construct: Full length rat PICK1 (pET41) was prepared as described earlier; inferred from pET41 vector and Glutathione-Sepharose capture) (N, cleaved yes); made in house; host or cells: E. coli BL21-DE3-pLysS
# T1 sequence (Q9EP80 whole entry): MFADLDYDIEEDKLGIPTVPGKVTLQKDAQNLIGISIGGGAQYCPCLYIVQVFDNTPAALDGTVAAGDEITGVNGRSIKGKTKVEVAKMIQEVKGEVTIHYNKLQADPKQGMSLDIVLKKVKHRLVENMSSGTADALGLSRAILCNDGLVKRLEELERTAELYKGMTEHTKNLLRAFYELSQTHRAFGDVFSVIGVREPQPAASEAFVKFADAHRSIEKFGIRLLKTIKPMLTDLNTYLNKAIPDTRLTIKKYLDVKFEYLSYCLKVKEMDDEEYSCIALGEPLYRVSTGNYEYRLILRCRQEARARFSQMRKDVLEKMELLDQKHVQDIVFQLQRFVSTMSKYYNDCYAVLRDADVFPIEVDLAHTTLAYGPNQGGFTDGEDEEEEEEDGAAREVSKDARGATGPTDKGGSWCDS
# Procedure: Full length rat PICK1 (pET41) was prepared as described earlier (Madsen et al., 2005). In brief, PICK1 was expressed in BL21-DE3-pLysS cells and grown at 37° C., induced at OD600=0.6 with 1 mM Isopropyl β-D-1-thiogalactopyranoside (IPTG) and grown 16 hrs at 20° C. Cultures were harvested and re-suspended in 50 mM trisaminomethane (Tris), 125 mM NaCl, 2 mM Dithiothreitol (DTT, Sigma), 1% Triton X-100 (Sigma), 20 μg/mL DNAse 1 and 1⁄2 a tablet cOmplete protease inhibitor cocktail (Roche) pr. 1 L culture. The re-suspended pellets were frozen at -80° C. for later purification. […] Each column was sealed and 0.075 U/μL, Novagen® was added for cleavage 0/N at 4° C. under gentle rotation. PICK1 was eluted on ice and absorption at 280 nm was measured on TECAN plate reader or on a NanoDrop3000. The protein concentration was determined using lambert beers law (A=ε[…]=32320 (cm*mol/L)^-1. Size exclusion chromatography: Size exclusion chromatography was performed using an Äkta purifier with a Superdex200 Increase 10/300 column, where 500 μL of 40 μM PICK1 in absence or presence of 10 μM […] was loaded to the column. Absorbance profile was measured at 280 nm and plotted against elution volume using Graph Pad Prism 8.3.
smiles,measurement,setting,value
CCCCCCCCCCCCCC(=O)N(CCOCCOCCC(=O)N[C@@H](Cc1c[nH]cn1)C(=O)N[C@@H](Cc1c[nH]c2ccccc12)C(=O)N[C@@H](CC(C)C)C(=O)N[C@@H](CCCCN)C(=O)N[C@H](C(=O)O)C(C)C)CCOCCOCCC(=O)N[C@@H](Cc1c[nH]cn1)C(=O)N[C@@H](Cc1c[nH]c2ccccc12)C(=O)N[C@@H](CC(C)C)C(=O)N[C@@H](CCCCN)C(=O)N[C@H](C(=O)O)C(C)C [myr-NPEG4-(HWLKV)2],paw withdrawal threshold of uninjured contralateral paw,"[1]; CFA model, Example 7",remained unaltered
same,relief of evoked pain (paw withdrawal threshold),"[1]; intrathecal 20 μM, 7 μL, 1 and 5 h",significant pain relief at 1 hour and 5 hours
same,relief of evoked pain (paw withdrawal threshold),"[1]; intrathecal 20 μM, 7 μL, 24 h",no effect 24 hours after administration
same,"relief of evoked pain (paw withdrawal threshold), lipid variants","[1]; s.c. 2.0 μmol/kg in PBS, day 2-5 after CFA, tested 2 and 5 h",full and highly significant pain relief
same,relief of evoked pain (paw withdrawal threshold),"[1]; s.c. 2 μmol/kg, tested 1, 5, 24 h",significant pain relief when tested 1 hour post injection
same,"relief of evoked pain (paw withdrawal threshold), PDZ motif variants","[1]; s.c. 2 μmol/kg, day 5 after CFA",relieved pain
same,relief of evoked pain (paw withdrawal threshold),"[1]; s.c. 10 μmol/kg, tested 1, 5, 24 h",significant pain relief when tested 1 hour post injection
same,relief of evoked pain (paw withdrawal threshold),"[1]; s.c. 50 μmol/kg, tested 1, 5, 24 h",significant pain relief when tested 1 hour post injection; also recorded: significant pain relief up to 5 hours post injection
same,Cmax,[2]; s.c. 3.75 mg/kg (2 μmol/kg),1450 ± 106 ng/mL
same,Cmax,[2]; s.c. 18.8 mg/kg (10 μmol/kg),6170 ± 508 ng/mL
same,Cmax,[2]; s.c. 93.8 mg/kg (50 μmol/kg),20300 ± 642 ng/mL
same,half-life,[2]; summary over doses,30 to 45 min
same,oligomeric state of PICK1 upon binding (SEC elution volume),PICK1,forms higher order oligomeric structures of PICK1 upon binding
